# Assay results reported in PubChem BioAssay (NCI).
#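 48-hour exposure; five concentrations; linearly interpolated endpoints. TGI: total growth inhibition.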
# Experiments:
# Test in all cases: NCI-60 cell line screen, 48 h
# 786-0 renal = tested on: 786-0 renal
# A498 renal = tested on: A498 renal
# A549 NSCLC = tested on: A549 NSCLC
# ACHN renal = tested on: ACHN renal
# CAKI-1 renal = tested on: CAKI-1 renal
# CCRF-CEM leukemia = tested on: CCRF-CEM leukemia
# COLO 205 colon = tested on: COLO 205 colon
# DMS 114 small cell lung = tested on: DMS 114 small cell lung
# EKVX NSCLC = tested on: EKVX NSCLC
# HCC-2998 colon = tested on: HCC-2998 colon
# HCT-116 colon = tested on: HCT-116 colon
# HCT-15 colon = tested on: HCT-15 colon
# HL-60(TB) leukemia = tested on: HL-60(TB) leukemia
# HOP-62 NSCLC = tested on: HOP-62 NSCLC
# HOP-92 NSCLC = tested on: HOP-92 NSCLC
# HT29 colon = tested on: HT29 colon
# IGROV1 ovarian = tested on: IGROV1 ovarian
# K-562 leukemia = tested on: K-562 leukemia
# KM12 colon = tested on: KM12 colon
# KM20L2 colon = tested on: KM20L2 colon
# LOX IMVI melanoma = tested on: LOX IMVI melanoma
# LXFL 529 NSCLC = tested on: LXFL 529 NSCLC
# M14 melanoma = tested on: M14 melanoma
# M19-MEL melanoma = tested on: M19-MEL melanoma
# MALME-3M melanoma = tested on: MALME-3M melanoma
# MOLT-4 leukemia = tested on: MOLT-4 leukemia
# NCI-H226 lung = tested on: NCI-H226 lung
# NCI-H23 lung = tested on: NCI-H23 lung
# NCI-H460 lung = tested on: NCI-H460 lung
# NCI-H522 lung = tested on: NCI-H522 lung
# OVCAR-3 ovarian = tested on: OVCAR-3 ovarian
# OVCAR-4 ovarian = tested on: OVCAR-4 ovarian
# OVCAR-5 ovarian = tested on: OVCAR-5 ovarian
# OVCAR-8 ovarian = tested on: OVCAR-8 ovarian
# RPMI-8226 leukemia = tested on: RPMI-8226 leukemia
# SF-268 CNS = tested on: SF-268 CNS
# SF-295 CNS = tested on: SF-295 CNS
# SF-539 CNS = tested on: SF-539 CNS
# SK-MEL-2 melanoma = tested on: SK-MEL-2 melanoma
# SK-MEL-28 melanoma = tested on: SK-MEL-28 melanoma
# SK-MEL-5 melanoma = tested on: SK-MEL-5 melanoma
# SK-OV-3 ovarian = tested on: SK-OV-3 ovarian
# SN12C renal = tested on: SN12C renal
# SNB-19 CNS = tested on: SNB-19 CNS
# SNB-78 CNS = tested on: SNB-78 CNS
# SR leukemia = tested on: SR leukemia
# SW-620 colon = tested on: SW-620 colon
# TK-10 renal = tested on: TK-10 renal
# U251 CNS = tested on: U251 CNS
# UACC-257 melanoma = tested on: UACC-257 melanoma
# UACC-62 melanoma = tested on: UACC-62 melanoma
# UO-31 renal = tested on: UO-31 renal
# RXF 393 renal = tested on: RXF 393 renal
# SNB-75 CNS = tested on: SNB-75 CNS
# XF 498 CNS = tested on: XF 498 CNS
# DMS 273 small cell lung = tested on: DMS 273 small cell lung
smiles,measurement,setting,value
CN/N=C(/Cc1occc(=O)c1O)C(=O)Nc1ccccc1C,TGI,786-0 renal,> 100 µM
same,TGI,A498 renal,> 100 µM
same,TGI,A549 NSCLC,> 100 µM
same,TGI,ACHN renal,> 100 µM
same,TGI,CAKI-1 renal,> 100 µM
same,TGI,CCRF-CEM leukemia,> 100 µM
same,TGI,COLO 205 colon,> 100 µM
same,TGI,DMS 114 small cell lung,> 100 µM
same,TGI,EKVX NSCLC,> 100 µM
same,TGI,HCC-2998 colon,> 100 µM
same,TGI,HCT-116 colon,> 100 µM
same,TGI,HCT-15 colon,> 100 µM
same,TGI,HL-60(TB) leukemia,> 100 µM
same,TGI,HOP-62 NSCLC,> 100 µM
same,TGI,HOP-92 NSCLC,> 100 µM
same,TGI,HT29 colon,> 100 µM
same,TGI,IGROV1 ovarian,> 100 µM
same,TGI,K-562 leukemia,> 100 µM
same,TGI,KM12 colon,> 100 µM
same,TGI,KM20L2 colon,> 100 µM
same,TGI,LOX IMVI melanoma,> 100 µM
same,TGI,LXFL 529 NSCLC,> 100 µM
same,TGI,M14 melanoma,> 100 µM
same,TGI,M19-MEL melanoma,> 100 µM
same,TGI,MALME-3M melanoma,> 100 µM
same,TGI,MOLT-4 leukemia,> 100 µM
same,TGI,NCI-H226 lung,> 100 µM
same,TGI,NCI-H23 lung,> 100 µM
same,TGI,NCI-H460 lung,> 100 µM
same,TGI,NCI-H522 lung,> 100 µM
same,TGI,OVCAR-3 ovarian,> 100 µM
same,TGI,OVCAR-4 ovarian,> 100 µM
same,TGI,OVCAR-5 ovarian,> 100 µM
same,TGI,OVCAR-8 ovarian,> 100 µM
same,TGI,RPMI-8226 leukemia,> 100 µM
same,TGI,SF-268 CNS,> 100 µM
same,TGI,SF-295 CNS,> 100 µM
same,TGI,SF-539 CNS,> 100 µM
same,TGI,SK-MEL-2 melanoma,> 100 µM
same,TGI,SK-MEL-28 melanoma,> 100 µM
same,TGI,SK-MEL-5 melanoma,> 100 µM
same,TGI,SK-OV-3 ovarian,> 100 µM
same,TGI,SN12C renal,> 100 µM
same,TGI,SNB-19 CNS,> 100 µM
same,TGI,SNB-78 CNS,> 100 µM
same,TGI,SR leukemia,> 100 µM
same,TGI,SW-620 colon,> 100 µM
same,TGI,TK-10 renal,> 100 µM
same,TGI,U251 CNS,> 100 µM
same,TGI,UACC-257 melanoma,> 100 µM
same,TGI,UACC-62 melanoma,> 100 µM
same,TGI,UO-31 renal,> 100 µM
O=CC[C@H]1C(=O)C[C@@H]2CCC[C@@H]21,TGI,786-0 renal,> 100 µM
same,TGI,A498 renal,> 100 µM
same,TGI,A549 NSCLC,> 100 µM
same,TGI,ACHN renal,> 100 µM
same,TGI,CAKI-1 renal,> 100 µM
same,TGI,CCRF-CEM leukemia,> 100 µM
same,TGI,COLO 205 colon,> 100 µM
same,TGI,EKVX NSCLC,> 100 µM
same,TGI,HCC-2998 colon,> 100 µM
same,TGI,HCT-116 colon,> 100 µM
same,TGI,HCT-15 colon,> 100 µM
same,TGI,HL-60(TB) leukemia,> 100 µM
same,TGI,HOP-62 NSCLC,> 100 µM
same,TGI,HOP-92 NSCLC,> 100 µM
same,TGI,HT29 colon,> 100 µM
same,TGI,IGROV1 ovarian,> 100 µM
same,TGI,K-562 leukemia,> 100 µM
same,TGI,KM12 colon,> 100 µM
same,TGI,LXFL 529 NSCLC,> 100 µM
same,TGI,M14 melanoma,> 100 µM
same,TGI,M19-MEL melanoma,> 100 µM
same,TGI,MALME-3M melanoma,> 100 µM
same,TGI,MOLT-4 leukemia,> 100 µM
same,TGI,NCI-H226 lung,> 100 µM
same,TGI,NCI-H23 lung,> 100 µM
same,TGI,NCI-H460 lung,> 100 µM
same,TGI,NCI-H522 lung,> 100 µM
same,TGI,OVCAR-3 ovarian,> 100 µM
same,TGI,OVCAR-4 ovarian,> 100 µM
same,TGI,OVCAR-5 ovarian,> 100 µM
same,TGI,OVCAR-8 ovarian,> 100 µM
same,TGI,RPMI-8226 leukemia,> 100 µM
same,TGI,RXF 393 renal,> 100 µM
same,TGI,SF-268 CNS,> 100 µM
same,TGI,SF-295 CNS,> 100 µM
same,TGI,SF-539 CNS,> 100 µM
same,TGI,SK-MEL-2 melanoma,> 100 µM
same,TGI,SK-MEL-28 melanoma,> 100 µM
same,TGI,SK-MEL-5 melanoma,> 100 µM
same,TGI,SK-OV-3 ovarian,> 100 µM
same,TGI,SN12C renal,> 100 µM
same,TGI,SNB-19 CNS,> 100 µM
same,TGI,SNB-75 CNS,> 100 µM
same,TGI,SNB-78 CNS,> 100 µM
same,TGI,SW-620 colon,> 100 µM
same,TGI,TK-10 renal,> 100 µM
same,TGI,U251 CNS,> 100 µM
same,TGI,UACC-257 melanoma,> 100 µM
same,TGI,UACC-62 melanoma,> 100 µM
same,TGI,XF 498 CNS,> 100 µM
CC(=O)NNc1nc(C)c(C(=O)NNC(=O)C(=O)Nc2c(Cl)cc([N+](=O)[O-])cc2Cl)s1,TGI,786-0 renal,> 100 µM
same,TGI,A498 renal,66.3 µM
same,TGI,A549 NSCLC,> 100 µM
same,TGI,ACHN renal,> 100 µM
same,TGI,CCRF-CEM leukemia,93.4 µM
same,TGI,COLO 205 colon,> 100 µM
same,TGI,DMS 114 small cell lung,94.9 µM
same,TGI,DMS 273 small cell lung,> 100 µM
same,TGI,EKVX NSCLC,> 100 µM
same,TGI,HCC-2998 colon,> 100 µM
same,TGI,HCT-116 colon,> 100 µM
same,TGI,HCT-15 colon,> 100 µM
same,TGI,HL-60(TB) leukemia,84.7 µM
same,TGI,HOP-62 NSCLC,> 100 µM
same,TGI,HOP-92 NSCLC,56.2 µM
same,TGI,HT29 colon,> 100 µM
same,TGI,IGROV1 ovarian,> 100 µM
same,TGI,K-562 leukemia,> 100 µM
same,TGI,KM12 colon,> 100 µM
same,TGI,KM20L2 colon,> 100 µM
same,TGI,LOX IMVI melanoma,> 100 µM
same,TGI,LXFL 529 NSCLC,> 100 µM
same,TGI,M14 melanoma,> 100 µM
same,TGI,M19-MEL melanoma,> 100 µM
same,TGI,MALME-3M melanoma,> 100 µM
same,TGI,MOLT-4 leukemia,97.6 µM
same,TGI,NCI-H226 lung,82.6 µM
same,TGI,NCI-H23 lung,36.7 µM
same,TGI,NCI-H460 lung,> 100 µM
same,TGI,OVCAR-3 ovarian,52.8 µM
same,TGI,OVCAR-4 ovarian,63.2 µM
same,TGI,OVCAR-5 ovarian,93.4 µM
same,TGI,OVCAR-8 ovarian,> 100 µM
same,TGI,RPMI-8226 leukemia,> 100 µM
same,TGI,SF-268 CNS,86.1 µM
same,TGI,SF-295 CNS,> 100 µM
same,TGI,SF-539 CNS,66.8 µM
same,TGI,SK-MEL-2 melanoma,> 100 µM
same,TGI,SK-MEL-28 melanoma,69.8 µM
same,TGI,SK-MEL-5 melanoma,> 100 µM
same,TGI,SK-OV-3 ovarian,> 100 µM
same,TGI,SN12C renal,> 100 µM
same,TGI,SNB-19 CNS,> 100 µM
same,TGI,SNB-78 CNS,> 100 µM
same,TGI,SR leukemia,> 100 µM
same,TGI,SW-620 colon,78.5 µM
same,TGI,TK-10 renal,> 100 µM
same,TGI,U251 CNS,> 100 µM
same,TGI,UACC-257 melanoma,68.7 µM
same,TGI,UACC-62 melanoma,86.2 µM
same,TGI,UO-31 renal,87.1 µM
CC(=O)NNc1nc(C)c(C(=O)NNC(=O)C(=O)Nc2ccc(Cl)cc2)s1,TGI,786-0 renal,> 100 µM
same,TGI,A549 NSCLC,> 100 µM
same,TGI,ACHN renal,> 100 µM
same,TGI,CCRF-CEM leukemia,> 100 µM
same,TGI,COLO 205 colon,> 100 µM
same,TGI,EKVX NSCLC,> 100 µM
same,TGI,HCC-2998 colon,> 100 µM
same,TGI,HCT-116 colon,> 100 µM
same,TGI,HCT-15 colon,> 100 µM
same,TGI,HL-60(TB) leukemia,> 100 µM
same,TGI,HOP-62 NSCLC,> 100 µM
same,TGI,HOP-92 NSCLC,> 100 µM
same,TGI,HT29 colon,> 100 µM
same,TGI,IGROV1 ovarian,> 100 µM
same,TGI,K-562 leukemia,> 100 µM
same,TGI,KM12 colon,> 100 µM
same,TGI,KM20L2 colon,> 100 µM
same,TGI,LOX IMVI melanoma,> 100 µM
same,TGI,LXFL 529 NSCLC,> 100 µM
same,TGI,M14 melanoma,> 100 µM
same,TGI,M19-MEL melanoma,> 100 µM
same,TGI,MALME-3M melanoma,> 100 µM
same,TGI,MOLT-4 leukemia,> 100 µM
same,TGI,NCI-H226 lung,> 100 µM
same,TGI,NCI-H23 lung,> 100 µM
same,TGI,NCI-H460 lung,> 100 µM
same,TGI,NCI-H522 lung,> 100 µM
same,TGI,OVCAR-3 ovarian,> 100 µM
same,TGI,OVCAR-4 ovarian,> 100 µM
same,TGI,OVCAR-5 ovarian,> 100 µM
same,TGI,OVCAR-8 ovarian,> 100 µM
same,TGI,RPMI-8226 leukemia,> 100 µM
same,TGI,SF-268 CNS,> 100 µM
same,TGI,SF-295 CNS,> 100 µM
same,TGI,SF-539 CNS,> 100 µM
same,TGI,SK-MEL-2 melanoma,> 100 µM
same,TGI,SK-MEL-28 melanoma,> 100 µM
same,TGI,SK-MEL-5 melanoma,> 100 µM
same,TGI,SK-OV-3 ovarian,> 100 µM
same,TGI,SN12C renal,> 100 µM
same,TGI,SNB-19 CNS,> 100 µM
same,TGI,SNB-78 CNS,> 100 µM
same,TGI,SR leukemia,> 100 µM
same,TGI,SW-620 colon,> 100 µM
same,TGI,TK-10 renal,> 100 µM
same,TGI,U251 CNS,> 100 µM
same,TGI,UACC-257 melanoma,> 100 µM
same,TGI,UACC-62 melanoma,> 100 µM
same,TGI,UO-31 renal,> 100 µM
same,TGI,XF 498 CNS,> 100 µM
